Data set [1] has as its target Albumin (Homo sapiens, UniProt P02768). Nature of the data set: Binding affinity to human serum albumin by fluorescence based assay. It counts as ADME.
Data set [2] concerns the target T1, Albumin (Bos taurus, UniProt P02769). Nature of the data set: Binding affinity to bovine serum albumin by fluorescence based assay. It counts as ADME.
Data set [3] in a line: Chemical stability of compound in PBS at 20 uM at pH 8 exposed to 2-mins nitrogen bubbling followed by supplementation with human serum albumin measured for 6 hrs by UV-vis spectrophotometry analysis. It counts as physicochemical.
Data set [4] in a line: Chemical stability of compound in PBS at 20 uM at pH 8 exposed to air bubbling followed by supplementation with human serum albumin measured for 6 hrs by UV-vis spectrophotometry analysis. It counts as physicochemical.
Data set [5] can be described thus: Plasma concentration in syrian hamster infected with Leishmania infantum BCN150 promastigote at 40 mg/kg/day, po for 10 days formulated with 50% v/v cyclodextrin. It counts as ADME, organism-based, Mesocricetus auratus.
Data set [6] deals with Leishmania infantum. Nature of the data set: Antileishmanial activity against Leishmania infantum amastigotes infected in Syrian hamster assessed as parasite load within spleen at 40 mg/kg/day, po for 10 days formulated with 30% v/v cyclodextrin (reference value: 9874032.937 +/- 3482270.184/g). It counts as functional.
Data set [7] relates to Leishmania donovani. Nature of the data set: Antileishmanial activity against antimony sensitive Leishmania donovani BPK091 promastigotes infected in C57BL/6 mouse bone marrow-derived macrophages assessed as reduction in parasite load at 5 uM treated with compound at 24 hrs post-infection measured after 72 hrs post infection by q-PCR analysis relative to control. It counts as functional.

The test system of data set [8] is Leishmania donovani. Put plainly: Antileishmanial activity against antimony sensitive Leishmania donovani BPK091 promastigotes infected in C57BL/6 mouse bone marrow-derived macrophages assessed as reduction in parasite load at 10 uM treated with compound at 24 hrs post-infection measured after 72 hrs post infection by q-PCR analysis relative to control. The class given is functional.

A short description of data set [9]: Toxicity in Syrian hamster infected with Leishmania infantum BCN150 promastigotes assessed as spleen weight at 40 mg/kg/day, po for 10 days formulated with 30% v/v cyclodextrin (reference value: 0.183 +/- 0.04 g). The class given is organism-based, Mesocricetus auratus. Conditions: in vivo, 240 h.
A short description of data set [10]: Toxicity in Syrian hamster infected with Leishmania infantum BCN150 promastigotes assessed as adverse effects at 20 mg/kg/every 12 hrs, po for 10 days formulated with 30% v/v cyclodextrin measured daily. The class given is organism-based, Mesocricetus auratus. Conditions: in vivo.
The nature of data set [11]: AUC (total) in BALB/c mouse at 1 mg/kg, iv measured upto 72 hrs by snapshot method. Conditions: in vivo. Further details: dose 1 mg/kg, time < 72 hr, route intravenous. The class given is ADME, organism-based.
Data set [12] is described as follows: Half-life in BALB/c mouse at 1 mg/kg, iv measured upto 72 hrs by snapshot method. It counts as ADME, organism-based. Conditions: in vivo.
Data set [13] is described as follows: Half-life in BALB/c mouse at 20 mg/kg, po measured upto 72 hrs by snapshot method. The class given is ADME, organism-based. Particulars: in vivo.
The subject of the next data set is hERG. Put plainly: Selectivity ratio of IC50 for human ERG to EC50 for antileishmanial activity against luciferase expressing intracellular amastigote stage of Leishmania infantum infected in human THP1 cells. The class given is toxicity, cell-based.
For data set [14], the system named is Leishmania infantum. Put plainly: Antileishmanial activity against Leishmania infantum amastigotes infected in Syrian hamster assessed as parasite load within liver at 40 mg/kg/day, po for 10 days formulated with 8% v/v DMSO (reference value: 5333333.333 +/- 3011090.611/g). The class given is functional.
Data set [15] concerns Leishmania infantum. Nature of the data set: Anti-leishmanial activity against Leishmania infantum BCN150 promastigotes infected in Syrian hamster assessed as decrease in anti-leishmanial IgG level at 40 mg/kg/day, po for 10 days formulated with 30 to 50 % v/v cyclodextrin by ELISA. The class given is functional, organism-based. In general terms: An ELISA detects its analyte on a solid surface through an enzyme-linked reagent.

For data set [16], the system named is Leishmania infantum. Put plainly: Anti-leishmanial activity against Leishmania infantum BCN150 promastigotes infected in Syrian hamster assessed as decrease in anti-leishmanial IgG level at 40 mg/kg/day, po for 10 days formulated with […] v/v DMSO by ELISA. The class given is functional, organism-based.
The nature of data set [17]: Toxicity in Syrian hamster infected with Leishmania infantum BCN150 promastigotes assessed as liver weight at 40 mg/kg/day, po for 10 days formulated with 8% v/v DMSO (reference value: 5.874 +/- 0.414 g). The class given is organism-based, Mesocricetus auratus. Particulars: in vivo, 240 h.
A short description of data set [18]: Toxicity in Syrian hamster infected with Leishmania infantum BCN150 promastigotes assessed as spleen weight at 40 mg/kg/day, po for 10 days formulated with 8% v/v DMSO (reference value: 0.182 +/- 0.036 g). The class given is organism-based, Mesocricetus auratus. Particulars: in vivo, 240 h.
Data set [19] can be described thus: Toxicity in Syrian hamster infected with Leishmania infantum BCN150 promastigotes assessed as effect on alkaline phosphatase level at 40 mg/kg/day, po for 10 days formulated with 8% v/v DMSO measured after the last treatment. The class given is organism-based, Mesocricetus auratus. Particulars: in vivo, 240 h.
Data set [20] can be described thus: Toxicity in Syrian hamster infected with Leishmania infantum BCN150 promastigotes assessed as effect on ALT level at 40 mg/kg/day, po for 10 days formulated with 8% v/v DMSO measured after the last treatment. It counts as organism-based, Mesocricetus auratus. Conditions: in vivo, 240 h.
Data set [21] can be described thus: Toxicity in Syrian hamster infected with Leishmania infantum BCN150 promastigotes assessed as effect on plasma urea level at 40 mg/kg/day, po for 10 days formulated with 8% v/v DMSO. The class given is organism-based, Mesocricetus auratus. Particulars: in vivo, 240 h.
The subject of a further data set is WI-38. Put plainly: Cytotoxicity against human WI38 cells incubated for 48 hrs by Celltiter-Glo luminescence assay. It counts as cell-based. Particulars: wi-38, 48 h.
The target of data set [22] is T1, Albumin. Put plainly: Binding affinity to bovine serum albumin in phosphate buffer assessed as increase in emission anisotropy at 530 nm at 5 uM measured at pH 8 by fluorescence emission spectrum analysis. It counts as ADME. Conditions: cattle, isolated protein.
Data set [23] can be described thus: Binding affinity to pepsin in porcine gastric mucosa in phosphate buffer assessed as compound lifetime at 530 nm at 5 uM measured at pH 8 by fluorescence emission spectrum analysis. It counts as ADME, Sus scrofa. Conditions: pig.
Data set [24] can be described thus: Toxicity in Syrian hamster infected with Leishmania infantum BCN150 promastigotes assessed as spleen lesions at 40 mg/kg/day, po for 10 days formulated with 8% v/v DMSO measured under necropsy. Conditions: in vivo, 240 h. It counts as organism-based, Mesocricetus auratus.
The subject of data set [25] is Leishmania infantum. Nature of the data set: Antileishmanial activity against Leishmania infantum amastigotes infected in Syrian hamster assessed as parasite load within spleen at 20 mg/kg/day, po for 10 days (reference value: 9151063.431 +/- 2606154.975/g). The class given is functional.
The subject of data set [26] is Leishmania infantum. Put plainly: Antileishmanial activity against Leishmania infantum amastigotes infected in Syrian hamster assessed as reduction in parasite load in liver at 20 mg/kg/day, po for 10 days relative to control. The class given is functional. Conditions: 240 h.
In data set [27] the test system is Leishmania infantum. Put plainly: Antileishmanial activity against Leishmania infantum amastigotes infected in Syrian hamster assessed as reduction in parasite load in spleen at 20 mg/kg/day, po for 10 days relative to control. The class given is functional. Conditions: 240 h.
A short description of data set [28]: Toxicity in Syrian hamster infected with Leishmania infantum BCN150 promastigotes assessed as dizziness at 20 mg/kg/day, po for 10 days measured daily. It counts as organism-based, Mesocricetus auratus. Conditions: in vivo, 240 h.
A short description of data set [29]: Toxicity in Syrian hamster infected with Leishmania infantum BCN150 promastigotes assessed as effect on alkaline phosphatase level at 20 mg/kg/day, po for 10 days measured after the last treatment. The class given is organism-based, Mesocricetus auratus. Particulars: in vivo, 240 h.
Data set [30] can be described thus: Toxicity in Syrian hamster infected with Leishmania infantum BCN150 promastigotes assessed as effect on plasma creatinine level at 20 mg/kg/day, po for 10 days measured after the last treatment. Conditions: in vivo, 240 h. It counts as organism-based, Mesocricetus auratus.
A short description of data set [31]: Toxicity in Syrian hamster infected with Leishmania infantum BCN150 promastigotes assessed as effect on plasma urea level at 20 mg/kg/day, po for 10 days measured after the last treatment. It counts as organism-based, Mesocricetus auratus. Conditions: in vivo, 240 h.
A short description of data set [32]: Toxicity in Syrian hamster infected with Leishmania infantum BCN150 promastigotes assessed as spleen lesions at 20 mg/kg/day, po for 10 days. The class given is organism-based, Mesocricetus auratus. Particulars: in vivo, 240 h.

What is called Kd is the equilibrium constant for the complex coming apart. A lower Kd goes with higher affinity. As usually defined, the inhibition is the relative decrease from the control value, in per cent. In general, AUC refers to the area under the concentration-time curve, a measure of exposure. A low value points to less exposure. What is called half-life is how long it takes for the measured level to halve. One may read the inhibition in vivo as the change of the read-out against control, counted positive when it falls.

Values joined by “and” are separate entries in the source; they are usually repeats but may differ in a detail not shown here. Identical values can stand only once. Active and inactive are the calls of the source. No cut-off for these calls is given here.

T1 sequence (P02769 whole entry): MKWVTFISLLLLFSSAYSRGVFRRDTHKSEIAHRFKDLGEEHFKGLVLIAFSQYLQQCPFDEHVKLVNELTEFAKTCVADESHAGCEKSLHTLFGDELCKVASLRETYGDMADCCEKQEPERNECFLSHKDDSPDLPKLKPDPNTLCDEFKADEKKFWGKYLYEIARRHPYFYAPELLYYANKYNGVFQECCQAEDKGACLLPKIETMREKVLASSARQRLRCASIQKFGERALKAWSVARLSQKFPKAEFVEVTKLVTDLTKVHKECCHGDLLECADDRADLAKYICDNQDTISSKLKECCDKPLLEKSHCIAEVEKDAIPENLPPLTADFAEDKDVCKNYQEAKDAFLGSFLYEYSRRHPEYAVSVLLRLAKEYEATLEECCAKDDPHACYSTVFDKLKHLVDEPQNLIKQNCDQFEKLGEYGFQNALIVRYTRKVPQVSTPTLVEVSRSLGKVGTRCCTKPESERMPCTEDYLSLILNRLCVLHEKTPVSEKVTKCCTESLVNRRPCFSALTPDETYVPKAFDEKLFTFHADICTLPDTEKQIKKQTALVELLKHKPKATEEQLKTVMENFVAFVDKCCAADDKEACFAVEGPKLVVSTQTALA
Albumin (Homo sapiens, UniProt P02768), sequence (P02768 whole entry): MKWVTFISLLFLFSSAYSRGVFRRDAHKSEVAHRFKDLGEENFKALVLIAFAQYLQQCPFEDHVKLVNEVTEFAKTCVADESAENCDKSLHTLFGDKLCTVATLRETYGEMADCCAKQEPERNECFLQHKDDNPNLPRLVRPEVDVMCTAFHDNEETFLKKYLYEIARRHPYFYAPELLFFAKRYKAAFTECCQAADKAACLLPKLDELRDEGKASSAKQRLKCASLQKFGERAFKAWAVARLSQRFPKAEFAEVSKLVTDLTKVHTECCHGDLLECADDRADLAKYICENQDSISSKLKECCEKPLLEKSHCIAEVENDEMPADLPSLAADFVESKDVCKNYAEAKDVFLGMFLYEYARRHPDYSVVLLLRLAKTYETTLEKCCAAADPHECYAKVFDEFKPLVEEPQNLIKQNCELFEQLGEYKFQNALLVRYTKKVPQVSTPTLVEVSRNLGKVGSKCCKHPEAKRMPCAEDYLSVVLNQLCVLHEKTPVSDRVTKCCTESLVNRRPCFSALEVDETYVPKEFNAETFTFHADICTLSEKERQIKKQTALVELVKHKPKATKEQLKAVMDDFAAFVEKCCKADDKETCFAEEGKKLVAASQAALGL

As to `COc1ccc2oc(-c3csc4ccccc34)c(O)c(=O)c2c1`, the values for the Kd on Albumin [1] and on Albumin [2] were less than 10 µM and more than 12 µM, respectively. Also, the Stability result in [3] and in data set [4] was “Stable” in each case. The compound further had a concentration at 240 h in data set [5] of 38 nM. Moreover, the Activity is 7030915.598 g⁻¹ in the data set with Leishmania infantum [6]; 0.719 g in [9]; “Non-Toxic” in data set [10]; 4285714.286 g⁻¹ in the data set with Leishmania infantum [14]; 5.444 g in [17]; 0.19 g in data set [18]. Further, the Activity result in [19] is “Non-Toxic”; in data set [20], “Non-Toxic”; in data set [21], “Non-Toxic”; in the data set on WI-38 it was “Non-Toxic”; at Albumin [22] it was “Active”; in data set [24], “Non-Toxic”. Also, the inhibition at 5 µM with Leishmania donovani [7] worked out at 36%. Further, the inhibition at 10 µM in the data set on Leishmania donovani [8] came out at 69%. The AUC at 72 h in data set [11] was 16.3 µM·h and 5280 ng·h/mL. Further, the results for the half-life in data set [12] and in [13] were 63.2 h and 46.9 h, respectively. In addition, the selectivity ratio in the data set with hERG was 50. For the same compound, the inhibition result in the data set on Leishmania infantum [15] and in the data set on Leishmania infantum [16] was “Active” throughout. The Time in [23] worked out at 5.5 nanoseconds.

As for `CCCCCCCCCCCCCCCCOP(=O)([O-])OCC[N+](C)(C)C` [MILTEFOSINE], the Activity in the data set with Leishmania infantum [25] was 244476.109 g⁻¹; in data set [28], “Toxic”; in [29], “Non-Toxic”; in data set [30] it was “Non-Toxic”; in [31] it was “Non-Toxic”; in data set [32] it was “Non-Toxic”. Besides, the inhibition in vivo at 20 mg/kg/day in the data set with Leishmania infantum [26] worked out at 81.2%; with Leishmania infantum [27] it was 97.3%.
